Patent publication US6083944A, “Quinoline-containing α-ketoamide cysteine and serine protease inhibitors” (Cephalon, Inc., priority 1998, dated 2000)

Columns and labels:
Assay type in all cases: biochemical
cathepsin B = molecular target: T1, cathepsin B (Homo sapiens, UniProt P07858); test: Inhibition of cathepsin B (Cbz-Phe-Arg-AMC hydrolysis); settings: Table 6; pH 6.0; read-out: Cath. B IC50
T1 construct: purchased Calbiochem 219364
Protocol: (§1) To evaluate inhibitory activity, stock solutions (40 times concentrated) of each compound to be tested were prepared in 100% anhydrous DMSO and 5 μl of each inhibitor preparation was aliquoted into each of three wells of a 96-well plate. Recombinant human calpain I, prepared by the method of Meyer et al. (Biochem. J. 1996, 314: 511-519), was diluted into assay buffer (i.e., 50 mM Tris, 50 mM NaCl, 1 mM EDTA, 1 mM EGTA, and 5 mM β-mercaptoethanol, pH 7.5, including 0.2 mM Succ-Leu-Tyr-MNA), and 175 μl was aliquoted into the same wells containing the independent inhibitor stocks as well as to positive control wells containing 5 μl DMSO, but no compound. To start the reaction, 20 μl of 50 mM CaCl2 in assay buffer was added to all wells of the plate, excepting three, which were used as background signal baseline controls. Substrate hydrolysis was monitored every 5 minutes for a total of 30 minutes. Substrate hydrolysis in the absence of inhibitor was linear for up to 15 minutes.
(§2) Inhibition of calpain I activity was calculated as the percent decrease in the rate of substrate hydrolysis in the presence of inhibitor relative to the rate in its absence. Comparison between the inhibited and control rates was made within the linear range for substrate hydrolysis. The IC50 S of inhibitors (concentration yielding 50% inhibition) were determined from the percent decrease in rates of substrate hydrolysis in the presence of five to seven different concentrations of the test compound. The results were plotted as percent inhibition versus log inhibitor concentration, and the IC50 was calculated by fitting the data to the four-parameter logistic equation shown below using the program GraphPad Prism (GraphPad Software, Inc., San Diego, Calif.).
Additionally, the order of reagents added to the plate was altered because the enzyme is consitutively active. Following inhibitor addition to the plates, appropriate 2× concentrated stock dilutions of the enzyme preparations were made in assay buffer and 100 μl added to each well. The assay was initiated by addition of 100 μl of 2× concentrated stock dilution of substrate in assay buffer. Substrate hydrolysis was monitored using a Fluoriskan II (ex=390 nm; em=460 nm).

α-chymotrypsin = molecular target: T2, α-chymotrypsin (Bos taurus, UniProt P00766); test: Inhibition of serine protease α-chymotrypsin (Succ-Ala-Ala-Pro-Phe-AMC hydrolysis); settings: Table 6; pH 7.5
T2 construct: purchased Sigma Chem. Co. C-3142
Protocol: as §1, §2
Additionally, because α-chymotrypsin is not a calcium sensitive enzyme and is constitutively active, following addition of inhibitor stocks to the 96 well plates, 100 μl of a 2-fold concentrated stock of enzyme in dilution buffer was first added and the reaction was started by addition of 100 μl of a 2-fold concentrated stock of substrate in assay buffer. Substrate hydrolysis was monitored every 5 minutes up to 30 minutes using a Fluoroskan II (ex=390 nm em=460 nm).

[1] = molecular target: T3, Recombinant human calpain I (Homo sapiens, UniProt P07384); test: Inhibition of calpain I (Succ-Leu-Tyr-MNA hydrolysis); settings: Tables 2-4; pH 7.5
T3 construct: made in house
T3 sequence (P07384 1-714): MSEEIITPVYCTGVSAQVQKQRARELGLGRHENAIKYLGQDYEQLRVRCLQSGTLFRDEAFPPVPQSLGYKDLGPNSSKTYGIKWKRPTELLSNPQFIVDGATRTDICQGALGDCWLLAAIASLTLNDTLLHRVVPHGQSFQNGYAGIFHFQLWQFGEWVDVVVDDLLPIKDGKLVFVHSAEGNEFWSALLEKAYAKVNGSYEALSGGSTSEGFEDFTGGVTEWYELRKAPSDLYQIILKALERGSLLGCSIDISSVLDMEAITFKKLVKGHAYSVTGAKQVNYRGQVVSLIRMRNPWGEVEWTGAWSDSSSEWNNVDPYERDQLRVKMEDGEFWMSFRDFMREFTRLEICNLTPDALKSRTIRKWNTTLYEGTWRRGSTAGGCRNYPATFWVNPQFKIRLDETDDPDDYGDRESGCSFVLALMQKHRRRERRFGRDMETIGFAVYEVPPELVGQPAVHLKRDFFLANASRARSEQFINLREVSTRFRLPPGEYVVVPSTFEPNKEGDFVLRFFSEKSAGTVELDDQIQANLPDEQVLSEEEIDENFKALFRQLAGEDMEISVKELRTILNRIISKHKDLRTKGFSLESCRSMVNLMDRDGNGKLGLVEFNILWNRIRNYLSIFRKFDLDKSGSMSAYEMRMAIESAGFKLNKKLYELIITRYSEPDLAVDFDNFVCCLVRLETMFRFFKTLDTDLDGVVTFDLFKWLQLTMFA
Protocol: as §1, §2
The parameters a, b, c, and d are defined as follows: a is % inhibition in the absence of inhibitor, b is the slope, c is the IC50, and d is the % inhibition at an infinite concentration of inhibitor.

Compound	IC50 (cathepsin B)	IC50 (α-chymotrypsin)	IC50 [1]
O=C(NCCNS(=O)(=O)c1ccc([N+](=O)[O-])cc1)C(=O)C(Cc1ccccc1)NC(=O)c1cc(C#Cc2ccccc2)nc2ccccc12 (single isomer, unassigned) [Example 84]	348 nM	14 nM	–
O=C(NCCNS(=O)(=O)c1ccc(-c2ccccn2)s1)C(=O)C(Cc1ccccc1)NC(=O)c1cc(C#Cc2ccccc2)nc2ccccc12 (stereo not shown) [Example 86]	1030 nM	475 nM	–
O=C(NCCNS(=O)(=O)c1ccccc1)C(=O)[C@H](Cc1ccccc1)NC(=O)c1cc(C#Cc2ccccc2)nc2ccccc12 [Example 96]	375 nM	66 nM	29 nM
O=C(NCCCNS(=O)(=O)c1ccccc1)C(=O)C(Cc1ccccc1)NC(=O)c1cc(C#Cc2ccccc2)nc2ccccc12 (stereo not shown) [Example 100]	360 nM	36 nM	55 nM

The remaining lines, values ahead:

IC50 (cathepsin B)	IC50 (α-chymotrypsin)	IC50 [1]	Compound
435 nM	380 nM	65 nM	CCONC(=O)C(=O)C(Cc1ccccc1)NC(=O)c1cc(C#Cc2ccccc2)nc2ccccc12 (stereo not shown) [Example 103]
330 nM	1160 nM	60 nM	O=C(NOCc1ccccc1)C(=O)C(Cc1ccccc1)NC(=O)c1cc(C#Cc2ccccc2)nc2ccccc12 (stereo not shown) [Example 104]
